Laboratory results: PubChem BioAssay AID248 (DTP/NCI, 2004)
Toxic doses and inconclusive results are not listed. Cut-off read from the data, not from the text of the source: active = T/C of 150% or more; inactive = T/C below 125%. Square brackets hold non-standard residues; d marks the D form. Peptide text beside a SMILES is read from it. βAla = NCCC(=O)O

Tested on: L1210 leukemia ip in BDF1 mice, survival T/C
Assay: NCI In Vivo Anticancer Drug Screen. Data for tumor model L1210 Leukemia (intraperitoneal) in B6D2F1 (BDF1) mice
Conditions: endpoint: mean survival time, higher = longer survival
Method in brief: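 Ratio derived from survival: compound-dosed mice over vehicle-dosed mice, all bearing a transplantable tumor.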

[1] = dose: 100.0 mg/kg/injection, schedule: Q04DX003 (ip), vehicle: Klucel (hydroxypropylcellulose) (HPC)
[2] = dose: 200.0 mg/kg/injection, schedule: Q04DX003 (ip), vehicle: Klucel (hydroxypropylcellulose) (HPC)
[3] = dose: 400.0 mg/kg/injection, schedule: Q04DX003 (ip), vehicle: Klucel (hydroxypropylcellulose) (HPC)
[4] = dose: 50.0 mg/kg/injection, schedule: Q01DX001 (ip), vehicle: carboxymethylcellulose (CMC)
[5] = dose: 100.0 mg/kg/injection, schedule: Q01DX001 (ip), vehicle: carboxymethylcellulose (CMC)
[6] = dose: 200.0 mg/kg/injection, schedule: Q01DX001 (ip), vehicle: carboxymethylcellulose (CMC)
[7] = dose: 200.0 mg/kg/injection, schedule: Q01DX009 (ip), vehicle: Klucel (hydroxypropylcellulose) (HPC)
[8] = dose: 100.0 mg/kg/injection, schedule: Q01DX001 (ip), vehicle: Klucel (hydroxypropylcellulose) (HPC)
[9] = dose: 200.0 mg/kg/injection, schedule: Q01DX001 (ip), vehicle: Klucel (hydroxypropylcellulose) (HPC)
[10] = dose: 400.0 mg/kg/injection, schedule: Q01DX001 (ip), vehicle: Klucel (hydroxypropylcellulose) (HPC)
[11] = dose: 100.0 mg/kg/injection, schedule: Q01DX001 (ip), vehicle: saline
[12] = dose: 200.0 mg/kg/injection, schedule: Q01DX001 (ip), vehicle: saline
[13] = dose: 400.0 mg/kg/injection, schedule: Q01DX001 (ip), vehicle: saline
[14] = dose: 50.0 mg/kg/injection, schedule: Q01DX009 (ip), vehicle: saline
[15] = dose: 100.0 mg/kg/injection, schedule: Q01DX009 (ip), vehicle: saline

Measured: T/C

CCC1COC(=S)N1 (stereo unspecified)
inactive: dose: 6.25 mg/kg/injection, schedule: Q01DX001 (ip), vehicle: Klucel (hydroxypropylcellulose) (HPC) 93 % of control | dose: 6.25 mg/kg/injection, schedule: Q01DX009 (ip), vehicle: saline 91 % of control | dose: 12.5 mg/kg/injection, schedule: Q01DX001 (ip), vehicle: Klucel (hydroxypropylcellulose) (HPC) 108 % of control | dose: 12.5 mg/kg/injection, schedule: Q01DX009 (ip), vehicle: saline 105 % of control | dose: 25.0 mg/kg/injection, schedule: Q01DX001 (ip), vehicle: Klucel (hydroxypropylcellulose) (HPC) 100 % of control | dose: 25.0 mg/kg/injection, schedule: Q04DX002 (ip), vehicle: saline with Tween-80 103 % of control

CCNCCCNCC(Cc1ccccc1)c1ccccc1 (stereo unspecified)
inactive: dose: 100.0 mg/kg/injection, schedule: Q04DX002 (ip), vehicle: saline 102 % of control

O=C(OCC1OC(Cl)C(OC(=O)c2ccccc2)C1OC(=O)c1ccccc1)c1ccccc1 (stereo unspecified)
inactive: dose: 100.0 mg/kg/injection, schedule: Q01DX001 (sc), vehicle: olive oil, sesame oil, peanut oil 100 % of control | dose: 200.0 mg/kg/injection, schedule: Q01DX001 (sc), vehicle: olive oil, sesame oil, peanut oil 100 % of control | dose: 400.0 mg/kg/injection, schedule: Q01DX001 (sc), vehicle: olive oil, sesame oil, peanut oil 96 % of control

Cl/N=C(/c1ccccc1)c1ccc(Cl)cc1
inactive: [1] 105 % of control | [2] 102 % of control | [3] 104 % of control

CC(NC(=O)C(CCC(=O)O)NC(=O)C(N)Cc1ccc(O)cc1)C(=O)NCCC(=O)NC(Cc1ccc(O)cc1)C(=O)NC(CCC(=O)O)C(=O)NC(C)C(=O)NCCC(=O)NCC(=O)O (stereo unspecified) (H-YEA[βAla]YEA[βAla]G-OH; configuration not given here)
inactive: [4] 93 % of control | [5] 96 % of control | [6] 98 % of control

CCOC(=O)C(Cc1cc(C(C)(C)C)c(O)c(C(C)(C)C)c1)(NC=O)C(=O)OCC
inactive: dose: 50.0 mg/kg/injection, schedule: Q01DX009 (ip), vehicle: Klucel (hydroxypropylcellulose) (HPC) 103 % of control | dose: 100.0 mg/kg/injection, schedule: Q01DX009 (ip), vehicle: Klucel (hydroxypropylcellulose) (HPC) 100 % of control | [7] 96 % of control

NCCCC(N)C(=O)NCCCCCCCCCCNC(=O)C(N)CCCN (stereo unspecified)
inactive: dose: 10.0 mg/kg/injection, schedule: Q01DX Z (ip), vehicle: saline 93 % of control | dose: 30.0 mg/kg/injection, schedule: Q01DX Z (ip), vehicle: saline 101 % of control

O=C(O)C1(c2ccccc2)OC1c1ccccc1 (stereo unspecified)
inactive: [8] 93 % of control | [1] 95 % of control | dose: 100.0 mg/kg/injection, schedule: Q04DX003 (ip), vehicle: saline with Tween-80 90 % of control | [9] 91 % of control | [2] 95 % of control | dose: 200.0 mg/kg/injection, schedule: Q04DX003 (ip), vehicle: saline with Tween-80 86 % of control | [10] 93 % of control | [3] 86 % of control | dose: 400.0 mg/kg/injection, schedule: Q04DX003 (ip), vehicle: saline with Tween-80 92 % of control

CCN(C(=O)Nc1ccc(OC)cc1)c1ccccc1C
inactive: [1] 99 % of control | [7] 96 % of control | [2] 96 % of control | dose: 400.0 mg/kg/injection, schedule: Q01DX009 (ip), vehicle: Klucel (hydroxypropylcellulose) (HPC) 102 % of control | [3] 96 % of control

O=C(O)C/C(=C/c1ccc2c(c1)OCO2)C(=O)O
inactive: dose: 100.0 mg/kg/injection, schedule: Q01DX009 (sc), vehicle: olive oil, sesame oil, peanut oil 102 % of control | dose: 100.0 mg/kg/injection, schedule: Q04DX003 (sc), vehicle: olive oil, sesame oil, peanut oil 106 % of control | dose: 200.0 mg/kg/injection, schedule: Q01DX009 (sc), vehicle: olive oil, sesame oil, peanut oil 100 % of control | dose: 200.0 mg/kg/injection, schedule: Q04DX003 (sc), vehicle: olive oil, sesame oil, peanut oil 106 % of control | dose: 400.0 mg/kg/injection, schedule: Q01DX009 (sc), vehicle: olive oil, sesame oil, peanut oil 98 % of control | dose: 400.0 mg/kg/injection, schedule: Q04DX003 (sc), vehicle: olive oil, sesame oil, peanut oil 101 % of control

CCN1C(=O)CN=C(c2ccccn2)c2cc(Cl)ccc21
inactive: [8] 95 % of control | [9] 101 % of control | [10] 96 % of control

C[N+]1(CCCCCNC2=CC(=O)C(NCCCCC[N+]3(C)CCCCC3)=CC2=O)CCCCC1
inactive: dose: 0.1 mg/kg/injection, schedule: Q01DX001 (ip), vehicle: saline 96 % of control

Cc1ccc(SCCN)cc1
inactive: dose: 75.0 mg/kg/injection, schedule: Q01DX001 (ip), vehicle: saline 105 % of control | dose: 150.0 mg/kg/injection, schedule: Q01DX001 (ip), vehicle: saline 96 % of control

O=C1c2ccccc2Cc2ccccc21
inactive: [11] 97 % of control | dose: 100.0 mg/kg/injection, schedule: Q04DX002 (ip), vehicle: gum acacia 103 % of control | [12] 95 % of control | dose: 200.0 mg/kg/injection, schedule: Q04DX002 (ip), vehicle: gum acacia 100 % of control | [13] 106 % of control | dose: 400.0 mg/kg/injection, schedule: Q04DX002 (ip), vehicle: gum acacia 106 % of control

O=[N+]([O-])c1cccc(C=Nc2cc(Cl)ccc2Cl)c1
inactive: dose: 75.0 mg/kg/injection, schedule: Q04DX003 (ip), vehicle: Klucel (hydroxypropylcellulose) (HPC) 106 % of control | [8] 101 % of control | dose: 150.0 mg/kg/injection, schedule: Q04DX003 (ip), vehicle: Klucel (hydroxypropylcellulose) (HPC) 95 % of control | [9] 107 % of control | dose: 300.0 mg/kg/injection, schedule: Q04DX003 (ip), vehicle: Klucel (hydroxypropylcellulose) (HPC) 98 % of control | [10] 102 % of control

CCCCCCCCCCCCCCCCCCNC(=O)Nc1ccccc1
inactive: dose: 100.0 mg/kg/injection, schedule: Q01DX009 (ip), vehicle: other 101 % of control | dose: 200.0 mg/kg/injection, schedule: Q01DX009 (ip), vehicle: other 100 % of control | dose: 400.0 mg/kg/injection, schedule: Q01DX009 (ip), vehicle: other 97 % of control

O=C(CCCC(=O)N/N=C/c1c[nH]c2ccc(Br)cc12)N/N=C\c1c[nH]c2ccc(Br)cc12
inactive: dose: 50.0 mg/kg/injection, schedule: Q01DX001 (ip), vehicle: saline 105 % of control | [11] 102 % of control | [12] 107 % of control | [13] 96 % of control

c1ccc(COc2ccc(OCc3ccccc3)cc2)cc1
inactive: [14] 93 % of control | [15] 98 % of control | [1] 87 % of control | dose: 200.0 mg/kg/injection, schedule: Q01DX009 (ip), vehicle: saline 93 % of control | [2] 105 % of control | [3] 94 % of control

C[CH2][Sn]([Cl])([Cl])[CH2]C.Oc1ccccc1C=NCCN=Cc1ccccc1O
inactive: dose: 5.0 mg/kg/injection, schedule: Q01DX009 (ip), vehicle: saline with Tween-80 98 % of control | dose: 5.0 mg/kg/injection, schedule: Q04DX003 (ip), vehicle: saline with Tween-80 106 % of control | dose: 10.0 mg/kg/injection, schedule: Q01DX009 (ip), vehicle: saline with Tween-80 97 % of control | dose: 10.0 mg/kg/injection, schedule: Q04DX003 (ip), vehicle: saline with Tween-80 100 % of control | dose: 20.0 mg/kg/injection, schedule: Q04DX003 (ip), vehicle: saline with Tween-80 108 % of control

N#CC1(Nc2ccc(S(N)(=O)=O)cc2)CCCC1
inactive: [4] 95 % of control | [5] 93 % of control | [6] 98 % of control

c1ccc2c(c1)CNCc1ccccc1-2
inactive: dose: 25.0 mg/kg/injection, schedule: Q01DX009 (ip), vehicle: saline 92 % of control | [14] 105 % of control | [15] 96 % of control | dose: 100.0 mg/kg/injection, schedule: Q04DX003 (ip), vehicle: saline 105 % of control

CNCC(N)=O
inactive: [4] 108 % of control | [5] 105 % of control | [6] 98 % of control | dose: 400.0 mg/kg/injection, schedule: Q01DX001 (ip), vehicle: carboxymethylcellulose (CMC) 95 % of control

CC(=O)Nc1ccc(SC2(Sc3ccc(NC(C)=O)cc3)c3ccccc3-c3ccccc32)cc1
inactive: [11] 92 % of control | [12] 98 % of control | [13] 100 % of control
